Test results as given in ChEMBL document CHEMBL3872247, “Discovery of dual positive allosteric modulators (PAMs) of the metabotropic glutamate 2 receptor and CysLT1 antagonists for treating migraine headache” (Bioorg Med Chem Lett, 2017).

What was measured:
[1] = target: T1, Metabotropic glutamate receptor 2 (Homo sapiens, UniProt Q14416); experiment: Positive allosteric modulation of recombinant human mGlu2 receptor expressed in hamster AV12 cells expressing EAAT1 assessed as potentiation of glutamate-induced intracellular calcium level measured after 24 to 48 hrs by FLIPR assay relative to glutamate; assay type: functional, cell-based
Target sequence in this assay (Q14416 19-872 limits assumed): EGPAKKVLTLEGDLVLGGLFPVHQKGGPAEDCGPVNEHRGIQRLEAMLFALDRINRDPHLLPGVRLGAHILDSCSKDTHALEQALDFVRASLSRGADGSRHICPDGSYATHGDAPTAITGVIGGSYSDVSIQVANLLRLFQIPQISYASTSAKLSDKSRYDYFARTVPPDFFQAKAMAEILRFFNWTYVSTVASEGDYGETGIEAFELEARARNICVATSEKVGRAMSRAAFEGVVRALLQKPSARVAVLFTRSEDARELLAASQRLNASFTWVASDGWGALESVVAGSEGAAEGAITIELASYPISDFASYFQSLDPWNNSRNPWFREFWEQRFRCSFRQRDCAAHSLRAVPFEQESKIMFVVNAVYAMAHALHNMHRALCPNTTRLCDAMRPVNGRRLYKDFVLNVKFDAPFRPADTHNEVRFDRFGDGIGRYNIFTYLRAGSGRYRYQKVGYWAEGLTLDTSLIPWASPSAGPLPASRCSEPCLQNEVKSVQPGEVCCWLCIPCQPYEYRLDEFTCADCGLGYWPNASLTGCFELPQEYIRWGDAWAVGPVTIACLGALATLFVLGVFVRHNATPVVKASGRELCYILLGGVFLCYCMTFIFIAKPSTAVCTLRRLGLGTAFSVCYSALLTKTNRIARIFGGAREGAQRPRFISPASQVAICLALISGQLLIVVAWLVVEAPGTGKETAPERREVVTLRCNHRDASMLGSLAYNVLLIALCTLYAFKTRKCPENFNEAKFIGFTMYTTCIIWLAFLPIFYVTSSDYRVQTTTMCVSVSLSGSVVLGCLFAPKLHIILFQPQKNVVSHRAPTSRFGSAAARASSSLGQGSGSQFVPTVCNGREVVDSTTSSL

[2] = target: T2, Cysteinyl leukotriene receptor 1 (Homo sapiens, UniProt Q9Y271); experiment: Antagonist activity at human CysLT1 receptor expressed in Syrian hamster AV12-664 cells assessed as decrease in LTD4-induced intracellular calcium level pretreated followed by LTD4 addition by fluo-3 dye based FLIPR assay; assay type: functional, cell-based
T2 sequence (Q9Y271 whole entry): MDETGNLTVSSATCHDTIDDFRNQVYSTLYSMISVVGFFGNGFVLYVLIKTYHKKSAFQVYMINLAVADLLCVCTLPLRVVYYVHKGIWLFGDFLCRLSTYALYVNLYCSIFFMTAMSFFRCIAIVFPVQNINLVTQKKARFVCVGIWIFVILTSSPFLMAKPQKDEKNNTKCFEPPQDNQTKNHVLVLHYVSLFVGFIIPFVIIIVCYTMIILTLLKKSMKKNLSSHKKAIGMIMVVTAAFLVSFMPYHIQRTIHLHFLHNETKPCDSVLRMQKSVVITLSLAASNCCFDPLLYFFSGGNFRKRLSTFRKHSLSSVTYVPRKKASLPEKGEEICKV

[3] = Half life in rat at 1 mg/kg, po; assay type: ADME, organism-based; conditions: in vivo
[4] = Clearance in dog at 0.5 mg/kg, iv; assay type: ADME, organism-based, Canis lupus familiaris; conditions: in vivo
[5] = Half life in dog at 1 mg/kg, po; assay type: ADME, organism-based, Canis lupus familiaris; conditions: in vivo
[6] = target: Metabotropic glutamate receptor 1 (Homo sapiens, UniProt Q13255); experiment: Positive allosteric modulation of recombinant human mGlu1 expressed in hamster AV12 cells expressing EAAT1 assessed as potentiation of glutamate-induced intracellular Ca2+ level measured after 24 hrs by FLIPR assay; assay type: functional, cell-based
Sequence of Metabotropic glutamate receptor 1 (Q13255 whole entry): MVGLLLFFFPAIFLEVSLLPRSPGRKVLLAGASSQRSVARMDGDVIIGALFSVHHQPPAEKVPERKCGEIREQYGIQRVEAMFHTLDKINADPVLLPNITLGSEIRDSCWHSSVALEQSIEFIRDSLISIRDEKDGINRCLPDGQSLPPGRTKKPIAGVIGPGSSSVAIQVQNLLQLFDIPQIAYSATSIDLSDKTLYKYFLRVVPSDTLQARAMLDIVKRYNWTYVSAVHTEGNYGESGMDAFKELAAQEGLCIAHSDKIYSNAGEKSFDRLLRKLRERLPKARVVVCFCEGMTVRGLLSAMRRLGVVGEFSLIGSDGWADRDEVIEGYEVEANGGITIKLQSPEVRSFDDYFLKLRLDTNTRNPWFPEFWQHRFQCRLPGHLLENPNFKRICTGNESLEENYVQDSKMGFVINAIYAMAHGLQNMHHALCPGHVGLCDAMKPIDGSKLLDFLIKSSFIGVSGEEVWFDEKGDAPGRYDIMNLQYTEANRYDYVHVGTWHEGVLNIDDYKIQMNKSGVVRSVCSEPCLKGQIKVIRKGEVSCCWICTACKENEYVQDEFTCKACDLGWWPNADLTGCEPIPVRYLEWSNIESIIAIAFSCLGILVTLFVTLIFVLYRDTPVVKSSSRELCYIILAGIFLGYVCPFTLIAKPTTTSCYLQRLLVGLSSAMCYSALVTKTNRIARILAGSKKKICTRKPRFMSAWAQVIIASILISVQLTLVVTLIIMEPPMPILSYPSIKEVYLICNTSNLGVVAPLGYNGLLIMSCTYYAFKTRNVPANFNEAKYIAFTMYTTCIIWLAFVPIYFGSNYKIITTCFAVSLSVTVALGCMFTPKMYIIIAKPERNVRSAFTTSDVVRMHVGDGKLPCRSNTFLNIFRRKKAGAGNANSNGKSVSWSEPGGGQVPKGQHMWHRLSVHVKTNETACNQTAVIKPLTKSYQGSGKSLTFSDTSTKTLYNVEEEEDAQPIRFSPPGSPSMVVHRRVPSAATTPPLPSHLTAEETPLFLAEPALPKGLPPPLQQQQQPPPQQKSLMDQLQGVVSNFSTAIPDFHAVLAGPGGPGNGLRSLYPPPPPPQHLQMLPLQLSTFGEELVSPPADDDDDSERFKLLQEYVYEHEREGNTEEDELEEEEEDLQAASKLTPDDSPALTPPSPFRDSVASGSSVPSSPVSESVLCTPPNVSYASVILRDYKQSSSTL

[7] = target: T1, Metabotropic glutamate receptor 2; experiment: Agonist activity at recombinant human mGlu2 receptor expressed in hamster AV12 cells expressing EAAT1 assessed as increase in intracellular calcium level measured after 24 to 48 hrs by FLIPR assay; assay type: functional, cell-based
Target sequence in this assay (Q14416 whole entry): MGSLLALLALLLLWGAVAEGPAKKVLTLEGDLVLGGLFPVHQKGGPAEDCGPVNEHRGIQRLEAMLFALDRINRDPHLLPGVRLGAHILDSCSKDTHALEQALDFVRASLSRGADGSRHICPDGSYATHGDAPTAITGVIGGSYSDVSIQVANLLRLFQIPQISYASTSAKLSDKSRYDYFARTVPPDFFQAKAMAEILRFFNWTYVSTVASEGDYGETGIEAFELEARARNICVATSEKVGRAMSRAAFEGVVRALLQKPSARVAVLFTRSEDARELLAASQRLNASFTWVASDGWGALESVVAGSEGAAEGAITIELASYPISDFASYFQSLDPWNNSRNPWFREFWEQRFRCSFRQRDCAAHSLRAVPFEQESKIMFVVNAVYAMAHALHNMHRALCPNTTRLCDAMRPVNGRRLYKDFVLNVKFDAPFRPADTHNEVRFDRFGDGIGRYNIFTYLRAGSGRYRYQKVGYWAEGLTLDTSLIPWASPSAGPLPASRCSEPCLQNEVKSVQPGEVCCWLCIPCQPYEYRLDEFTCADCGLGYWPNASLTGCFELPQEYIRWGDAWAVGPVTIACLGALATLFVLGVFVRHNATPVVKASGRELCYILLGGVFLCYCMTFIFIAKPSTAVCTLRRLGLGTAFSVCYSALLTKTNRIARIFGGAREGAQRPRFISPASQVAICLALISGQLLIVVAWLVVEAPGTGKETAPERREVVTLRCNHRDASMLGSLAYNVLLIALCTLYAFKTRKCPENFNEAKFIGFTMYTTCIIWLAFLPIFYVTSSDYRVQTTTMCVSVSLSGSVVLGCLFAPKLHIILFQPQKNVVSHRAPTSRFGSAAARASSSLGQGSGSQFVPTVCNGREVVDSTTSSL

[8] = target: Metabotropic glutamate receptor 3 (Homo sapiens, UniProt Q14832); experiment: Positive allosteric modulation of recombinant human mGlu3 expressed in hamster AV12 cells expressing EAAT1 assessed as potentiation of glutamate-induced intracellular Ca2+ level measured after 24 hrs by FLIPR assay; assay type: functional, cell-based
[9] = target: Metabotropic glutamate receptor 5 (Homo sapiens, UniProt P41594); experiment: Positive allosteric modulation of recombinant human mGlu5 expressed in hamster AV12 cells expressing EAAT1 assessed as potentiation of glutamate-induced intracellular Ca2+ level measured after 24 hrs by FLIPR assay; assay type: functional, cell-based
Sequence of Metabotropic glutamate receptor 5 (P41594 whole entry): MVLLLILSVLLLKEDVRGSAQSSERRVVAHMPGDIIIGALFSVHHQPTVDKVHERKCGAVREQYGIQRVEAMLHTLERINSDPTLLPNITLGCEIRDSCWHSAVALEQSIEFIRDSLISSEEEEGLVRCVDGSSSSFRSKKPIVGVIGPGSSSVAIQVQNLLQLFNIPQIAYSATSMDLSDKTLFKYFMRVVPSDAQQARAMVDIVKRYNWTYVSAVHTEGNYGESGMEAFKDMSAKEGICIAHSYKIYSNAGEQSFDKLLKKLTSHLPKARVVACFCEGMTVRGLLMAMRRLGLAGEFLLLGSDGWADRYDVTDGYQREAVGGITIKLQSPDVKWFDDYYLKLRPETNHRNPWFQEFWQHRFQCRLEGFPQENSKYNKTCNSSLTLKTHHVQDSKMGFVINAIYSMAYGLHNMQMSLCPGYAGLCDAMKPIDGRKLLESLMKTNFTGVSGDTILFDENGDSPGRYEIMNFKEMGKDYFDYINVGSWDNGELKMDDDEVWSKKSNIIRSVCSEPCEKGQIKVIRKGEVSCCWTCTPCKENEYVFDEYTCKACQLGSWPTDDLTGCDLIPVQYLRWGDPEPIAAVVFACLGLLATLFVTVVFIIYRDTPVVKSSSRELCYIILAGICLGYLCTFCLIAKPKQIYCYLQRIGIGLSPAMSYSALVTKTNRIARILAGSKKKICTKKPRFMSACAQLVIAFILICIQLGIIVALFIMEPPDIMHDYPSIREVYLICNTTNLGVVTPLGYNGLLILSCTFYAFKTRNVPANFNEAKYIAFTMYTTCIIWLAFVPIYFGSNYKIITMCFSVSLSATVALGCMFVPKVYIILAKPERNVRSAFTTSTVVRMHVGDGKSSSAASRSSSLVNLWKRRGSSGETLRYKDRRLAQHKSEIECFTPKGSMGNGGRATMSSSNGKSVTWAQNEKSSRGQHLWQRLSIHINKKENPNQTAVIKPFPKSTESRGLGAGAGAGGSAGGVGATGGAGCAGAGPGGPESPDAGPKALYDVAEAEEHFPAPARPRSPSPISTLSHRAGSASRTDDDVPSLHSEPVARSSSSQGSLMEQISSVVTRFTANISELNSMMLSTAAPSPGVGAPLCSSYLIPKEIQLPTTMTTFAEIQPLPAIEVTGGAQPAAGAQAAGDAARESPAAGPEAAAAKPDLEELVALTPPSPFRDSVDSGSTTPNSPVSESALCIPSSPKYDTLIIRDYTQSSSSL

[10] = target: Metabotropic glutamate receptor 8 (Homo sapiens) (UniProt O00222); experiment: Positive allosteric modulation of recombinant human mGlu8 expressed in hamster AV12 cells expressing EAAT1 assessed as potentiation of glutamate-induced intracellular Ca2+ level at 20 uM after 24 hrs by FLIPR assay; assay type: functional, cell-based
[11] = target: Cytochrome P450 3A4 (Homo sapiens, UniProt P08684); experiment: Inhibition of CYP3A4 (unknown origin); assay type: ADME
[12] = Ratio of Cmax in rat to EC50 for human mGlu2 receptor expressed in hamster AV12 cells expressing EAAT1
[13] = Ratio of Cmax in rat to EC50 for human CysLT1 expressed in Syrian hamster AV12-664 cells
[14] = target: Adrenergic receptor alpha-1 (Rattus norvegicus) (UniProt P15823+P23944+P43140); experiment: Displacement of [3H]prazosin from non-selective alpha1 adrenergic receptor in rat brain cortex at 10 uM measured after 60 mins by scintillation counting method; assay type: tissue-based
[15] = species: Rattus norvegicus; experiment: Displacement of [3H]flunitrazepam from Central-type benzodiazepine receptor in rat cerebral cortex at 10 uM measured after 60 mins by scintillation counting method
[16] = target: D(1A) dopamine receptor (Homo sapiens) (UniProt P21728); experiment: Displacement of [3H]SCH23390 from recombinant human dopamine D1 receptor expressed in CHO cells at 10 uM measured after 60 mins by scintillation counting method; assay type: cell-based
Sequence of D(1A) dopamine receptor (Homo sapiens) (P21728 whole entry): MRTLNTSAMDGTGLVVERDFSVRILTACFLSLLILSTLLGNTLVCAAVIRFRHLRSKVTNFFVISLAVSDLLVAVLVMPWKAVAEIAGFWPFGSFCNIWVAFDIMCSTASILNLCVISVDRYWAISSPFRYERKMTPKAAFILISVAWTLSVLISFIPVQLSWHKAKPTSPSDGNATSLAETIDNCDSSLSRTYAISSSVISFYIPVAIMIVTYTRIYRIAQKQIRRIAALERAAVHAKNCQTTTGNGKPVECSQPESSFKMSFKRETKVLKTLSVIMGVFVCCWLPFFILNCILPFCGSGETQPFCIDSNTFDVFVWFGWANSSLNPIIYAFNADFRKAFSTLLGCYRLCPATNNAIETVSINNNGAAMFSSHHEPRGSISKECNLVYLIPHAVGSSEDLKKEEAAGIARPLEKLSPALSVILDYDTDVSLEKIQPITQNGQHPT

[17] = target: Histamine H1 receptor (Homo sapiens) (UniProt P35367); experiment: Displacement of [3H]pyrilamine from recombinant human histamine H1 receptor expressed in HEK293 cells at 10 uM measured after 60 mins by scintillation counting method; assay type: cell-based
[18] = species: Rattus norvegicus; experiment: Displacement of [3H]naloxone from opioid receptor in rat cerebral cortex at 10 uM measured after 40 mins by scintillation counting method
[19] = species: Rattus norvegicus; experiment: Displacement of [3H]D888 from L-type calcium channel verapamil binding site in rat cerebral cortex at 10 uM measured after 120 mins by scintillation counting method
[20] = target: 5-hydroxytryptamine receptor 1D (Homo sapiens, UniProt P28221); experiment: Activity at human 5HT1D receptor
[21] = target: 5-hydroxytryptamine receptor 1E (Homo sapiens, UniProt P28566); experiment: Activity at human 5HT1E receptor
[22] = target: 5-hydroxytryptamine receptor 1F (Homo sapiens, UniProt P30939); experiment: Activity at human 5HT1F receptor
[23] = target: 5-hydroxytryptamine receptor 4 (Homo sapiens, UniProt Q13639); experiment: Displacement of human recombinant 5HT4E receptor expressed in CHO cells after 60 mins by scintillation counting method; assay type: cell-based
Sequence of 5-hydroxytryptamine receptor 4 (Q13639 whole entry): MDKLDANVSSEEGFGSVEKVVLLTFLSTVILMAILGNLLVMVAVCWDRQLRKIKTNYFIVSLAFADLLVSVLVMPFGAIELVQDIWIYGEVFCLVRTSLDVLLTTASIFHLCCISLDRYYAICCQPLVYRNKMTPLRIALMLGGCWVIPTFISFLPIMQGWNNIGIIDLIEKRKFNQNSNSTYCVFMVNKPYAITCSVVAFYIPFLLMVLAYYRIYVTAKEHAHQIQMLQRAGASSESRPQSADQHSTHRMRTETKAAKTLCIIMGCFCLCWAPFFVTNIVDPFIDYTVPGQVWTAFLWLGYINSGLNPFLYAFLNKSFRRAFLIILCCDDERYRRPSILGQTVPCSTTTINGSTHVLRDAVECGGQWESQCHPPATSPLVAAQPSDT

[24] = Ratio of drug level in brain to plasma in rat at 15 mg/kg, po; assay type: ADME, organism-based

- Emax [1]: 107%
- IC50 [2]: 0.0241 µM
- half-life [3]: 8 h
- clearance [4]: 12 mL/min/kg
- half-life [5]: 1 h
- EC50 [6]: > 12.5 µM
- EC50 [7]: > 25 µM
- EC50 [8]: > 12.5 µM
- EC50 [9]: > 12.5 µM
- Activity [10]: < 20%
- INH [11]: > 40 µM
- inhibition [14]: 5.3%
- inhibition [15]: 5.2%
- inhibition [16]: 6.4%
- inhibition [17]: 0.7%
- inhibition [18]: 15.1%
- inhibition [19]: 63.1%
- Ki [20]: > 2.4 µM
- Ki [21]: > 5.37 µM
- Ki [22]: > 2.97 µM
- Ki [23]: > 6.31 µM
- BPR [24]: < 1%
SMILES: CC(=O)c1ccc(OCc2ccc(Oc3cc(-c4nn[nH]n4)ccn3)cc2)c(C)c1O
- Ratio [12]: 0.65
- Ratio [13]: 7.8
